# Data published in patent US10383875B2, “Pharmaceutical formulations of xanthine or xanthine derivatives, and their use” (Imprimis Pharmaceuticals, Inc., priority 2013, dated 2019).
# Tests used:
# Peyronie's plaque = experiment: Injection of pentoxifylline directly into the Peyronie's plaque of patients (Examples 5 and 6); assay type: in vivo, human; conditions: Peyronie's disease
# Experimental: In Examples 5 and 6, patients suffering from Peyronie's disease were treated. A therapy cycle included injections of sterile pentoxifylline. More specifically, 6 separate injections were to be conducted over every two weeks. The dosage was 5 mg of pentoxifylline in a 1 ml volume. Single use vials were dispensed. The injections were made using a 21 gauge cannula directly into the Peyronie's plaque. A nerve block was done around the injection site to lessen the pain. Manual manipulation and traction techniques were employed to massage the area of the injection. Patients returned after two weeks for another injection and manual manipulation session.
# Baseline measurements were collected before any treatment occurred to characterize the extent of the patient's disease. The degree of curvature was noted, as well as any pain/discomfort that the patient presently had and current sexual ability. Psychosocial effects related to the patient's disease were observed as well.
# In Example 5, the patient suffering from Peyronie's disease was brought to the procedure room, prepared and draped in the usual sterile fashion.
# A total of 1 mL of 1% lidocaine was used to perform a local block. Once the patient was anesthetized, the plaque was isolated between two fingers and 1 mL of 5 mg pentoxyfilline was injected into the plaque in a fan-like fashion. […]
# erectile dysfunction = experiment: Intracavernosal injection in a patient with erectile dysfunction (Example 4); assay type: in vivo, human; conditions: person, along with phentolamine, alprostadil and papaverine
# Experimental: A new injection was reformulated to contain the 3 vasoactive drugs mentioned above along with the addition of pentoxifylline, and was administered to the patient.
# [1] = test system: symptoms of PD, such as erectile dysfunction; experiment: Intracavernosal injection of a composition comprising pentoxifylline (general finding); assay type: in vivo
# From the text: This disclosure relates to the finding that local administration of a xanthine derivative, e.g., pentoxifylline, has produced unexpected improvement in treating a fibrotic disease.
# [2] = test system: Peyronie's Disease plaques; conditions: oral administration; cited from earlier work
compound,measurement,setting,value
"CC(=O)CCCCn1c(=O)c2c(ncn2C)n(C)c1=O [pentoxifylline, 1-(5-oxohexyl)-3,7-dimethylxanthine]",tolerability of the procedure,"Peyronie's plaque; Example 5 patient, 1 mL of 5 mg injected into the plaque after 1% lidocaine local block",tolerated the procedure well
same,tolerability of the procedure,"Peyronie's plaque; Example 6 patient, treated in the same fashion as Example 5 (5 mg in 1 ml into the plaque)",tolerated the procedure well
same,improvement of erectile dysfunction,erectile dysfunction; pentoxifylline 6 mg dose,more remarkable
same,improvement of erectile dysfunction,erectile dysfunction; pentoxifylline dose of 4 mg per injection,remarkable improvement
same,"improvement to symptoms of PD, such as erectile dysfunction",[1],remarkable improvement
same,side effects,[1],fewer side effects
same,improvement of Peyronie's disease,[2],moderate to minimal improvement
